Experimental data: patent US9580390B2, “Indazole compounds as kinase inhibitors and method of treating cancer with same” (University Health Network, priority 2011, dated 2017)
pIC50: −log10 of the molar value.

What was measured:
[1] = target: T1, human TTK (Homo sapiens, UniProt P33981); test: TTK inhibition assay (indirect ELISA); format: biochemical; details: read-out: TTK IC50 Range
T1 construct: amino terminal GST fusion of full length human TTK; purchased Invitrogen
T1 sequence (P33981 1-857): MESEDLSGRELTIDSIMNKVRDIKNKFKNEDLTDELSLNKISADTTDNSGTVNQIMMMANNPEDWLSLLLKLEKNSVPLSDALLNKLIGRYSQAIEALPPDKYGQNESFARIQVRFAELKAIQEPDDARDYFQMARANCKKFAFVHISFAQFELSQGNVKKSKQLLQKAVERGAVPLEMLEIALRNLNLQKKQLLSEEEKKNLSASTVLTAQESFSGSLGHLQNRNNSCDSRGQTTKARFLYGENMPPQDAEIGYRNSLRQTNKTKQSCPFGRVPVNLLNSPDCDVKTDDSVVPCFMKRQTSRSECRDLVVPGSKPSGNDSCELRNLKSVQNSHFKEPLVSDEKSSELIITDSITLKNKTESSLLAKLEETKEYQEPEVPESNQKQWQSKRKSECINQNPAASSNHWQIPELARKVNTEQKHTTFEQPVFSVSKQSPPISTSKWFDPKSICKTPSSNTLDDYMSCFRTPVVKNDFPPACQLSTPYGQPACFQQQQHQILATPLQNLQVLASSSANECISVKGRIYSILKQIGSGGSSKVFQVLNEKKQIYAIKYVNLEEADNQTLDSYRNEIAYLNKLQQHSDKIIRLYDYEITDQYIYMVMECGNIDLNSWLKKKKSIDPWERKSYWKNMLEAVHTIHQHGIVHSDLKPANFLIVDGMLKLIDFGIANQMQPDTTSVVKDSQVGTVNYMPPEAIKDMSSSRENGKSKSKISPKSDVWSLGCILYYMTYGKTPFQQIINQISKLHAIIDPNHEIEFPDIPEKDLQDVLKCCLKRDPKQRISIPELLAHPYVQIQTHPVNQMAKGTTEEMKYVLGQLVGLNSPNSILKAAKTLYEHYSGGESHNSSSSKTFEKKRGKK

[2] = test system: Breast cancer cells; test: Cancer cell line growth inhibition (SRB assay); format: cell-based; details: Homo sapiens; MDA-MB-468; read-out: Cancer Cell Line GI50 Range MDA-MB-468
[3] = test system: colon cancer cells (HCT116); test: Cancer cell line growth inhibition (SRB assay); format: cell-based; details: Homo sapiens, HCT-116; read-out: Cancer Cell Line GI50 Range HCT116
[4] = test system: ovarian cancer cells (PA-1); test: Cancer cell line growth inhibition (SRB assay); format: cell-based; details: Homo sapiens, PA-1; read-out: Cancer Cell Line GI50 Range PA-1
Protocol: Breast cancer cells (MDA-MB-231), colon cancer cells (HCT116) and ovarian cancer cells (PA-1) were seeded (1000 to 4000 in 80 μl per well depending on the cell growth rate) into 96 well plates 24 hours before compound overlay. Compounds were prepared as 10 mM stock solutions in 100% DMSO which were diluted with DMEM (Dulbecco's Modified Eagle's Medium) cell growth Medium (Invitrogen, Burlington, ON, Canada) containing 10% FBS (Fetal Bovine Serum) to concentrations ranging from 50 nM to 250 μM. Aliquots (20 μl) from each concentration were overlaid to 80 μl of the pre-seeded cells in the 96 well plates to make final concentrations of 10 nM to 50 μM. The cells were cultured for 5 days before the Sulforhodamine B assay (SRB) was performed to determine the compound's cell growth inhibition activity.
Sulforhodamine B (purchased from Sigma, Oakville, ON, Canada) is a water-soluble dye that binds to the basic amino acids of the cellular proteins. Thus, colorimetric measurement of the bound dye provides an estimate of the total protein mass that is related to the cell number. the cells are fixed in situ by gently aspirating off the culture media and adding 50 μl ice cold 10% Trichloroacetic Acid (TCA) per well and incubate at 4° C. for 30-60 min. The plates are washed with H2O five times and allowed to air dry for 5 min. Addition of 50 μl 0.4% (w/v) SRB solution in 1% (v/v) acetic acid to each well and incubation for 30 min at RT completes the staining reaction. Following staining, plates are washed four times with 1% acetic acid to remove unbound dye and then allowed to air dry for 5 min. The stain is solubilized with 100 μl of 10 mM Tris pH 10.5 per well. Absorbance is read at 570 nm.
The percentage (%) of relative growth inhibition was calculated by comparing to DMSO treated only cells (100%). GI50's were determined for compounds with cytotoxic activity. The GI50 was calculated using GraphPad PRISM software (GraphPad Software, Inc., San Diego, Calif., USA).

SMILES | pIC50 [1] | GI50 [2] [nM] | GI50 [3] [nM] | GI50 [4] [nM]
Cn1ccc(=O)c2cc(-c3n[nH]c4ccc(C(=O)N[C@H](c5ccccn5)C5CCCC5)cc34)ccc21 [Example A240, (S)-N-(cyclopentyl(pyridin-2-yl)methyl)-3-(1-methyl-4-oxo-1,4-dihydroquinolin-6-yl)-1H-indazole-5-carboxamide] | > 7.00 | > 500 | > 500 | > 500
O=C(NCC1(c2cccnc2)CC1)c1ccc2[nH]nc(-c3ccc(N4CCOCC4)cc3)c2c1 [Example A461, 3-(4-morpholinophenyl)-N-((1-(pyridin-3-yl)cyclopropyl)methyl)-1H-indazole-5-carboxamide] | > 7.00 | > 500 | > 500 | > 500
O=C(N[C@H](c1ccccn1)C1CCCC1)c1ccc2[nH]nc(-c3ccc(OC4CC5CCC(C4)N5C4COC4)cc3)c2c1 (stereo partly drawn) [Example A347, N-((S)-cyclopentyl(pyridin-2-yl)methyl)-3-(4-(((1R,3R,5S)-8-(oxetan-3-yl)-8-azabicyclo[3.2.1]octan-3-yl)oxy)phenyl)-1H-indazole-5-carboxamide] | > 7.00 | 100 to 500 | < 100 | 100 to 500
CC(C)[C@@H](NC(=O)c1ccc2[nH]nc(-c3ccc(N4CC(N5CCOCC5)C4)cc3)c2c1)c1ccccc1Cl [Example A317, (R)-N-(1-(2-chlorophenyl)-2-methylpropyl)-3-(4-(3-morpholinoazetidin-1-yl)phenyl)-1H-indazole-5-carboxamide] | > 7.00 | 100 to 500 | 100 to 500 | < 100
CN1CC(Oc2ccc(-c3n[nH]c4ccc(C(=O)N[C@H](c5ccccn5)C5CCCC5)cc34)cc2)C1 [Example A295, (S)-N-(cyclopentyl(pyridin-2-yl)methyl)-3-(4-((1-methylazetidin-3-yl)oxy)phenyl)-1H-indazole-5-carboxamide] | > 7.00 | 100 to 500 | < 100 | < 100
CC1=CC(C)(C)Oc2ccc(-c3n[nH]c4ccc(C(=O)N[C@H](c5ccccn5)C5CC5)cc34)cc21 [Example A237, (S)-N-(cyclopropyl(pyridin-2-yl)methyl)-3-(2,2,4-trimethyl-2H-chromen-6-yl)-1H-indazole-5-carboxamide] | > 7.00 | > 500 | > 500 | > 500
CC(C)[C@H](NC(=O)c1ccc2[nH]nc(-c3ccc(C4CCN(C5COC5)CC4)cc3)c2c1)c1ccccc1Cl [Example A406, (S)-N-(1-(2-chlorophenyl)-2-methylpropyl)-3-(4-(4-(oxelan-3-yl)piperidin-1-yl)phenyl)-1H-indazole-5-carboxamide] | > 7.00 | > 500 | > 500 | > 500
CC(C)[C@@H](NC(=O)c1ccc2[nH]nc(-c3ccc(N4CCN(C5COC5)CC4)cc3)c2c1)c1ccccc1Cl [Example A412, (R)-N-(1-(2-chlorophenyl)-2-methylpropyl)-3-(4-(4-(oxetan-3-yl)piperazin-1-yl)phenyl)-1H-indazole-5-carboxamide] | > 7.00 | 100 to 500 | < 100 | < 100
CN1C2CCC1CC(Oc1ccc(-c3n[nH]c4ccc(C(=O)N[C@@H](c5ccccn5)C5CC5)cc34)cc1)C2 (stereo partly drawn) [Example A380, N-((R)-cyclopropyl(pyridin-2-yl)methyl)-3-(4-(((1R,3R,5S)-8-methyl-8-azabicyclo[3.2.1]octan-3-yl)oxy)phenyl)-1H-indazole-5-carboxamide] | > 7.00 | 100 to 500 | < 100 | < 100
CN1[C@@H]2CC[C@H]1C[C@@H](Oc1ccc(-c3n[nH]c4ccc(C(=O)NC(c5ccccc5)C(F)F)cc34)cc1)C2 (stereo partly drawn) [Example A227, N-(2,2-difIuoro-1-phenylethyl)-3-(4-(((1R,3R,5S)-8-methyl-8-azabicyclo[3.2.1]octan-3-yl)oxy)phenyl)-1H-indazole-5-carboxamide] | > 7.00 | > 500 | < 100 | 100 to 500
CN1CCC(Oc2ccc(-c3n[nH]c4ccc(C(=O)NCC5(OC6CCCC6)CCCCC5)cc34)cc2)CC1 [Example A442, N-((1-(cyclopentyloxy)cyclohexyl)methyl)-3-(4-((1-methylpiperidin-4-yl)oxy)phenyl)-1H-indazole-5-carboxamide] | > 7.00 | > 500 | > 500 | > 500
O=C(N[C@@H](c1ncccn1)C1CCCC1)c1ccc2[nH]nc(-c3ccc(N4CC(C5COC5)C4)cc3)c2c1 [Example A312, (R)-N-(cyclopentyl(pyrimidin-2-yl)methyl)-3-(4-(3-(oxetan-3-yl)azetidin-1-yl)phenyl)-1H-indazole-5-carboxamide] | > 7.00 | < 100 | < 100 | < 100
CC(C)[C@H](NC(=O)c1ccc2[nH]nc(-c3ccc4c(c3)C(=O)CC3(CN(C)C3)O4)c2c1)c1ccccc1Cl [Example A255, (S)-N-(1-(2-chlorophenyl)-2-methylpropyl)-3-(1-methyl-4′-oxospiro[azetidine-3,2′-chroman]-6′-yl)-1H-indazole-5-carboxamide] | > 7.00 | 100 to 500 | 100 to 500 | 100 to 500
CN1C2CCC1CC(Oc1ccc(-c3n[nH]c4ccc(C(=O)N[C@H](c5ccccn5)C5CCCC5)cc34)cc1)C2 (stereo partly drawn) [Example A252, N-((S)-cyclopentyl(pyridin-2-yl)methyl)-3-(4-(((1R,3R,5S)-8-methyl-8-azabicyclo[3.2.1]octan-3-yl)oxy)phenyl)-1H-indazole-5-carboxamide] | > 7.00 | < 100 | < 100 | < 100
Cc1cc(=O)n(C)c2ccc(-c3n[nH]c4ccc(C(=O)NCC5(N6CCOCC6)CCCCC5)cc34)cc12 [Example A491, 3-(1,4-dimethyl-2-oxo-1,2-dihydroquinolin-6-yl)-N-((1-morpholinocyclohexyl)methyl)-1H-indazole-5-carboxamide] | > 7.00 | > 500 | > 500 | > 500
CCC(CC)C(NC(=O)c1ccc2[nH]nc(-c3ccc(O[C@H]4C[C@H]5CC[C@@H](C4)N5C4COC4)cc3)c2c1)c1ccccn1 (stereo partly drawn) [Example A341, N-(2-ethyl-1-(pyridin-2-yl)butyl)-3-(4-(((1R,3R,5S)-8-(oxetan-3-yl)-8-azabicyclo[3.2.1]octan-3-yl)oxy)phenyl)-1H-indazole-5-carboxamide] | > 7.00 | 100 to 500 | 100 to 500 | 100 to 500
O=C(N[C@H](c1ccccn1)C1CC1)c1ccc2[nH]nc(-c3ccc(OC4CCN(C[C@@H](O)C(F)(F)F)CC4)cc3)c2c1 [Example A225, N-((S)-cyclopropyl(pyridin-2-yl)methyl)-3-(4-((1-((R)-3,3,3-trifluoro-2-hydroxypropyl)piperidin-4-yl)oxy)phenyl)-1H-indazole-5-carboxamide] | > 7.00 | 100 to 500 | < 100 | < 100
CC1(C)CC(=O)c2cc(-c3n[nH]c4ccc(C(=O)NCC5(N6CCOCC6)CCCCC5)cc34)ccc2O1 [Example A490, 3-(2,2-dimethyl-4-oxochroman-6-yl)-N-((1-morpholinocyclohexyl)methyl)-1H-indazole-5-carboxamide] | 6.30 to 7.00 | > 500 | > 500 | > 500
CN1C2CCC1CC(Oc1ccc(-c3n[nH]c4ccc(C(=O)NC(c5ccccc5)C(F)(F)F)cc34)cc1)C2 (stereo not drawn) [Example A400] | > 7.00 | > 500 | 100 to 500 | 100 to 500
O=C(NCC1(N2CCOCC2)CCC(F)(F)CC1)c1ccc2[nH]nc(-c3ccc(N4CCOCC4)cc3)c2c1 [Example A460, N-((4,4-difluoro-1-morpholinocyclohexyl)methyl)-3-(4-morpholinophenyl)-1H-indazole-5-carboxamide] | > 7.00 | > 500 | > 500 | > 500
CC(C)CC(NC(=O)c1ccc2[nH]nc(-c3ccc(O[C@H]4C[C@H]5CC[C@@H](C4)N5C=O)cc3)c2c1)c1ccccc1 (stereo partly drawn) [Example A340, 3-(4-(((1R,3R,5S)-8-formyl-8-azabicyclo[3.2.1]octan-3-yl)oxy)phenyl)-N-(3-methyl-1-phenylbutyl)-1H-indazole-5-carboxamide] | > 7.00 | 100 to 500 | 100 to 500 | < 100
